Results from patent publication US20230131025A1, “QUINOLYL PHOSPHINE OXIDE COMPOUND, AND COMPOSITION AND APPLICATION THEREOF” (Betta Pharmaceuticals Co., Ltd., priority 2020, published 2023).

Columns and labels:
Assay in all cases: Cell proliferation experiment (CellTiter Glo, 72 hours)
Type in all cases: cell-based
Ba/F3 EGFR WT = Ba/F3 EGFR WT (Homo sapiens, UniProt P00533); conditions: read-out: BaF3 EGFR WT IC50
Description: (§1) Experiment 2 Cell Proliferation Experiment
(§2) Suspension cells: Ba/F3 cells with stable overexpression of Δ19del/T790M/C797S mutant gene, named Ba/F3-Δ19del/T790M/C797S; Ba/F3 cells with overexpression of EGFR WT, named Ba/F3 EGFR WT.
(§3) RPMI 1640 with 10% FBS and 1% Penicillin-Streptomycin, or DMEM with 10% FBS and 1% Penicillin-Streptomycin.
(§4) a) Diluting compounds being tested (20 mM stock solutions), as an initial concentration, to 10 mM with 100% DMSO, followed by diluting compounds serially in a 3-fold gradient such that each compound is diluted into 12 concentrations (Cat #P-05525, Labcyte).
(§5) b) Diluting the above compound solutions for 100-fold with culture medium to prepare 10-fold working solution.
(§6) b) Seeding cells into 96-well cell culture plate at a density of 2000 or 3000 cells/well, with 135 μL/well.
(§7) a) Adding the compound prepared in step 2 to the cell plate at 15 μL per well, resulting in a final maximum concentration of 10000 nM or 1111 nM. The compounds is diluted serially in a 3-fold gradient such that each compound is diluted into 9 concentrations, wherein the final concentration of DMSO is 0.1%. Blank control wells are added with medium (0.1% DMSO).
(§8) b) Re-incubating the cells in an incubator for 72 hours. 5. Detection
(§9) a) Adding 50 μL of CTG reagent (CellTiter Glo kit, promega, Cat #G7573) to the 96-well cell culture plate.
(§10) b) Shaking the plate for 2 minutes and reacting at room temperature for 10 minutes.
(§11) c) Reading the luminescence signal value (Lum) using PerkinElmer reader.
(§12) The cell survival inhibition rate of each well was calculated. The data was analyzed by GraphPad Prism 6.0 software. The dose-response curve was obtained by fitting the data with a nonlinear regression equation. The IC50 of each compound was calculated as follows:
(§13) Cell survival inhibition rate (%)=(1−(Lumcompound tested−Lummedium control)/(Lumcell control−Lummedium control))×100%
(§14) Y=Min+(Max−Min)/(1+10^((Log IC50−X)*Slope));
(§15) X: logarithm of compound concentration. Y: cell survival inhibition rate.

Ba/F3-Δ19del/T790M/C797S = Ba/F3-Δ19del/T790M/C797S (Homo sapiens, UniProt P00533, T790M/C797S, cells depend on it, form not given); conditions: read-out: Ba/F3/EGFR Δ19del/T790M/C797S IC50
Description: as §1, §2, §3, §4, §5, §6, §7, §8, §9, §10, §11, §12, §13, §14, §15

[1] = tested on: human epidermal cancer cells A431 carrying EGFR WT; conditions: Homo sapiens, A-431
Description: as §1
Adherent cells: human epidermal cancer cells A431 carrying EGFR WT.
as §3, §4, §5, §6, §7, §8, §9, §10, §11, §12, §13, §14, §15

Chain of Ba/F3-Δ19del/T790M/C797S (P00533 with tags, fused parts or gaps DEL746-750/T790M/C797S, form open): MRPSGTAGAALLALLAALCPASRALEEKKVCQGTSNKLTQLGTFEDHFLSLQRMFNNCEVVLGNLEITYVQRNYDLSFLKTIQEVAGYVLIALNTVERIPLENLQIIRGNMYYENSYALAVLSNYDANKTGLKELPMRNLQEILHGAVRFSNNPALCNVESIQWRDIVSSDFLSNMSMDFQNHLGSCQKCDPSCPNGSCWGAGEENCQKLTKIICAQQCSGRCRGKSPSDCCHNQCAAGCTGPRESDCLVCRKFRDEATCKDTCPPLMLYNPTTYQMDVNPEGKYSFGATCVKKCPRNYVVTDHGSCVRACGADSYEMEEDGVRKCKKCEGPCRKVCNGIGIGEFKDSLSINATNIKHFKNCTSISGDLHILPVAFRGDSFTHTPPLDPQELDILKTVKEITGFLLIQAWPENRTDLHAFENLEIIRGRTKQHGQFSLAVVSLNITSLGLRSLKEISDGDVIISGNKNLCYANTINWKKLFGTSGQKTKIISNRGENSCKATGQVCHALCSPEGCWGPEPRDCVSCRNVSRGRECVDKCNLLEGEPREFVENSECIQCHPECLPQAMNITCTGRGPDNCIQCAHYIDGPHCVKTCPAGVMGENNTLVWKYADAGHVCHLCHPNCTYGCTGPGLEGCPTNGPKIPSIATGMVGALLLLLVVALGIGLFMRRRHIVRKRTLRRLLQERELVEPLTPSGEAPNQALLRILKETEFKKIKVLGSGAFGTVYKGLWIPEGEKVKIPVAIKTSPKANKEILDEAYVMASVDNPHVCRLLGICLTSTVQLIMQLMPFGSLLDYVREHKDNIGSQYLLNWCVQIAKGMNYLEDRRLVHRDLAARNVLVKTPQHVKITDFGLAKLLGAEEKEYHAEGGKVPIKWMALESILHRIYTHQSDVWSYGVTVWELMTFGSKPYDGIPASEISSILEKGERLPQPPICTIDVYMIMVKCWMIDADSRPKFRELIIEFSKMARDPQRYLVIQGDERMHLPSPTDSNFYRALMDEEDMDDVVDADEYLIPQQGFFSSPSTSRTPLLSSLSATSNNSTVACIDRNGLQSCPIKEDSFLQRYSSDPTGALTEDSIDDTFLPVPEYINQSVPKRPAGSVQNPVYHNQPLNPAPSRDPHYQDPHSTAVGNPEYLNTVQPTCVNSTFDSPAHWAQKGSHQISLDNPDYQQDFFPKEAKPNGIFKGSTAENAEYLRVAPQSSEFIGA
Chain of Ba/F3 EGFR WT (P00533 whole entry, change not shown): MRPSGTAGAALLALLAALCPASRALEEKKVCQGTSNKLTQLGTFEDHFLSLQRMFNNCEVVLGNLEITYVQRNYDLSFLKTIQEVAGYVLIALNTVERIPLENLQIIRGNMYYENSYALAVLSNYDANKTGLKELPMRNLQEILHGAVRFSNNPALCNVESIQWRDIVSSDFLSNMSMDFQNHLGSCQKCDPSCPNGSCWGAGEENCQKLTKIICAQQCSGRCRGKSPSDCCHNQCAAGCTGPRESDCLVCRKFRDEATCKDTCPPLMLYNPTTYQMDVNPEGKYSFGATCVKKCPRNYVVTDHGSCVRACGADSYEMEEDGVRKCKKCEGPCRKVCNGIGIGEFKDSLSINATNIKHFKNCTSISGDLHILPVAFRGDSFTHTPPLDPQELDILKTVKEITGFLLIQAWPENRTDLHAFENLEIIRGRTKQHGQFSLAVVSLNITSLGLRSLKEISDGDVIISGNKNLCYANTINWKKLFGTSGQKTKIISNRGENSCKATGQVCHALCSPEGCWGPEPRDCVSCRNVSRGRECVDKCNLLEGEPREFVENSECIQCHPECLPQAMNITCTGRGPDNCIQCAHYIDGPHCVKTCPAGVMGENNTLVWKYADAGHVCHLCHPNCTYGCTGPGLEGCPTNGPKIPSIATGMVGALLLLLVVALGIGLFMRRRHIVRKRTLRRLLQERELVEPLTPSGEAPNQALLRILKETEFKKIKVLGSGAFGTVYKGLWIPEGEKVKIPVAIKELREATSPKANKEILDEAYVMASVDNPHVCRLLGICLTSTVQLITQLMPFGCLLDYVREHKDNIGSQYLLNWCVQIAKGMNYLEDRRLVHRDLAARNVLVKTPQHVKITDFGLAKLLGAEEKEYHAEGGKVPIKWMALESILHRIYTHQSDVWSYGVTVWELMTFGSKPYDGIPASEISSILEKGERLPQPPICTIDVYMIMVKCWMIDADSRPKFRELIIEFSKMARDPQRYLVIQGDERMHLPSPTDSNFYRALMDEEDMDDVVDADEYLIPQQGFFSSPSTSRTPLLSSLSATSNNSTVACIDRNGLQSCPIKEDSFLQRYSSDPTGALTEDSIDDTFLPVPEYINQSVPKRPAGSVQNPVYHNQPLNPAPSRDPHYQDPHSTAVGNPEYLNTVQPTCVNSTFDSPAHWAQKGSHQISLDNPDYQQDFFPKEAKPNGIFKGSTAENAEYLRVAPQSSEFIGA

Row | GI50 (Ba/F3 EGFR WT) [nM] | GI50 (Ba/F3-Δ19del/T790M/C797S) [nM] | IC50 [1] [nM] | SMILES
1 | 73 | 13 | 425 | COc1cc(N2CCC(N3CCN(C)CC3)CC2)c(-c2cnn(C)c2)cc1Nc1ncc(F)c(Nc2ccc3nc(C4CC4)ccc3c2P(C)(C)=O)n1 [Compound J-065]
2 | 14.6 | 1.1 | 128 | COc1cc(N2CCC(N3CCN(C)CC3)CC2)c(-c2ccn(C)c2)cc1Nc1ncc(Br)c(Nc2ccc3nc(C4CC4)ccc3c2P(C)(C)=O)n1 [Compound J-064, (6-((5-Bromo-2-((2-methoxy-5-(1-methyl-1H-pyrrol-3-yl)-4-(4-(4-methylpiperazine-1-yl)piperidin-1-yl)phenyl)amino)pyrimidin-4-yl)amino)-2-cyclopropylquinolin-5-yl)dimethylphosphine oxide]

The remaining lines, values behind:

Row | SMILES | GI50 (Ba/F3 EGFR WT) [nM] | GI50 (Ba/F3-Δ19del/T790M/C797S) [nM] | IC50 [1] [nM]
3 | COc1cc(N2CCN(c3ccncn3)CC2)c(-c2cnn(C)c2)cc1Nc1ncc(Br)c(Nc2ccc3nc(C4CC4)ccc3c2P(C)(C)=O)n1 [Compound J-060, (6-((5-Bromo-2-((2-methoxy-5-(1-methyl-1H-pyrazol-4-yl)-4-(4-(pyrimidin-4-yl)piperazin-1-yl)phenyl)amino)pyrimidin-4-yl)amino)-2-cyclopropylquinolin-5-yl)dimethylphosphine oxide] | 54 | 2.3 | 366
4 | COc1cc(N2CCN(c3nccs3)CC2)c(-c2cnn(C)c2)cc1Nc1ncc(Br)c(Nc2ccc3nc(C4CC4)ccc3c2P(C)(C)=O)n1 [Compound J-048, (6-((5-Bromo-2-((2-methoxy-5-(1-methyl-1H-pyrazol-4-yl)-4-(4-(thiazol-2-yl)piperazin-1-yl)phenyl)amino)pyrimidin-4-yl)amino)-2-cyclopropylquinolin-5-yl)dimethylphosphine oxide] | 52 | 7.6 | 1100
5 | COc1cc(NCC2CCOCC2)c(-c2cnn(C)c2)cc1Nc1ncc(Br)c(Nc2ccc3nc(C4CC4)ccc3c2P(C)(C)=O)n1 [Compound J-053, (6-((5-Bromo-2-((2-methoxy-5-(1-methyl-1H-pyrazol-4-yl)-4-(((tetrahydro-2H-pyran-4-yl)methyl)amino)phenyl)amino)pyrimidin-4-yl)amino)-2-cyclopropylquinolin-5-yl)dimethylphosphine oxide] | 54 | 3.9 | 753
6 | COc1cc(N2CCN(c3cnc(N(C)C)cn3)CC2)c(-c2cnn(C)c2)cc1Nc1ncc(Br)c(Nc2ccc3nc(C4CC4)ccc3c2P(C)(C)=O)n1 [Compound J-045, (6-((5-Bromo-2-((4-(4-(5-(dimethylamino)pyrazin-2-yl)piperazin-1-yl)-2-methoxy-5-(1-methyl-1H-pyrazol-4-yl)phenyl)amino)pyrimidin-4-yl)amino)-2-cyclopropylquinolin-5-yl)dimethylphosphine oxide] | 130 | 13.5 | 710
7 | COc1cc(N2CCN(c3cccnc3)CC2)c(-c2cnn(C)c2)cc1Nc1ncc(Br)c(Nc2ccc3nc(C4CC4)ccc3c2P(C)(C)=O)n1 [Compound J-056, (6-((5-Bromo-2-((2-methoxy-5-(1-methyl-1H-pyrazol-4-yl)-4-(4-(pyridin-3-yl)piperazin-1-yl)phenyl)amino)pyrimidin-4-yl)amino)-2-cyclopropylquinolin-5-yl)dimethylphosphine oxide] | 38 | 0.8 | 1100
8 | COc1cc(N2CCN(c3ccncc3)CC2)c(-c2cnn(C)c2)cc1Nc1ncc(Br)c(Nc2ccc3nc(C4CC4)ccc3c2P(C)(C)=O)n1 [Compound J-057, (6-((5-Bromo-2-((2-methoxy-5-(1-methyl-1H-pyrazol-4-yl)-4-(4-(pyridin-4-yl)piperazin-1-yl)phenyl)amino)pyrimidin-4-yl)amino)-2-cyclopropylquinolin-5-yl)dimethylphosphine oxide] | 54 | 3 | 328
